Measured values: patent US20110053897A1 (IRM LLC, priority 2009, published 2011)
Read-outs that look alike come from different tables or passages of the source.

Molecular target: T1, Syk kinase (Homo sapiens, UniProt P43405)
T1 construct: purchased
Test: Syk kinase inhibition, Caliper LabChip off-chip mobility-shift kinase assay
Assay type: biochemical
Conditions: read-out: Syk Enzyme IC50
In short: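 Purified Syk pre-incubated 15 min with compound in 100 mM HEPES pH 7.5, 1 mM DTT, 10 mM MgCl2 or MnCl2, 0.002% Brij-35, then 1.5 μM fluorescein peptide and ATP at apparent KM added; 1–1.5 h at room temperature, 4% DMSO, EDTA stop. Microfluidic mobility-shift product/substrate conversion gave % inhibition; IC50 from 12-point series (10–0.00003 μM) by 4-parameter fit.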

Structure (SMILES)	IC50 [nM]	IC50 (Caliper LabChip assay) [nM]
COc1cncc(-c2cc3cc[nH]c(=O)c3c(Nc3ccc(C4CCN(CCN(C)C)CC4)c(C)c3)n2)n1 [compound 63]	33	–
CC(C)(C)Nc1nc(Nc2ccncn2)cc2ccn(CCO)c(=O)c12 [compound 736]	–	90
CC(C)(C)Nc1nc(Nc2c[n+]([O-])ccn2)cc2ccn(C[C@@H](O)CO)c(=O)c12 [compound 675]	–	6
[2H][C@]1(O)CC[C@H](Nc2nc(Nc3cnccn3)cc3ccn(CC)c(=O)c23)CC1 [compound 991]	–	29
CC(C)(C)Nc1nc(Nc2cc(C(C)(C)O)ncn2)cc2ccn(CCO)c(=O)c12 [compound 716]	–	35
CO/N=C(\C)c1ccnc(Nc2cc3ccn(CCO)c(=O)c3c(NC(C)(C)C)n2)c1 [compound 695]	–	431
CCN1CCN(C(=O)c2ccc(Nc3nc(-c4cncc(OC)n4)cc4cc[nH]c(=O)c34)cc2)CC1 [compound 64]	35	–
Cc1ncc(-c2cc3cc[nH]c(=O)c3c(Nc3ccc(C4CCN(C5CS(=O)(=O)C5)CC4)c(C)c3)n2)cn1 [compound 107]	117	–
CC(C)(C)Nc1nc(Nc2cc(/C(N)=N/O)ccn2)cc2ccn(CCO)c(=O)c12 [compound 869]	–	6
Cc1ccnc(Nc2cc3cc[nH]c(=O)c3c(NC3CCN(Cc4ccccc4)C3)n2)c1 (centres unmarked) [compound 553]	550	–
COCCNc1nc(Nc2cc(C)ccn2)cc2cc[nH]c(=O)c12 [compound 527]	120	–
CC(C)(C)Nc1nc(Nc2cc(N3CCC(O)CC3)ccn2)cc2ccn(CCO)c(=O)c12 [compound 846]	–	216
CC(C)(C)Nc1nc(Nc2cc(C3CCN(CCO)CC3)ncn2)cc2ccn(CCO)c(=O)c12 [compound 640]	–	116
CCn1ccc2cc(-c3cnc(N)nc3)nc(N[C@H]3CC[C@H](O)CC3)c2c1=O [compound 1032]	–	46
CCC(C)Nc1nc(Nc2ccccn2)cc2cc[nH]c(=O)c12 (centres unmarked) [compound 263]	756	–
[2H]C([2H])([2H])n1ccc2cc(Nc3cnccn3)nc(N[C@H]3CC[C@@H](CO)C3)c2c1=O [compound 986]	–	9
COc1cncc(-c2cc3cc[nH]c(=O)c3c(Nc3ccc(C4CCN(CC(O)CO)CC4)cc3)n2)n1 (centres unmarked) [compound 127]	7	–
CCN1CCN(Cc2n[nH]c3cc(Nc4nc(-c5ccc(C)nc5)cc5cc[nH]c(=O)c45)ccc23)CC1 [compound 203]	49	–
Cc1ccnc(Nc2cc3ccn(C)c(=O)c3c(Nc3ccc(C(N)=O)cc3)n2)c1 [compound 483]	62	–
CCn1ccc2cc(Nc3cnccn3)nc(N[C@H]3CCC[C@H]3O)c2c1=O [compound 938]	–	24
COc1cncc(-c2cc3cc[nH]c(=O)c3c(Nc3ccc(N4CCC(OC)CC4)cc3)n2)n1 [compound 20]	318	–
CC(C)(C)Nc1nc(Nc2cc(C(=O)N3CCCC(CO)C3)ccn2)cc2ccn(CCO)c(=O)c12 (centres unmarked) [compound 688]	–	866
CC(C)(C)Nc1nc(Nc2cc(C(C)(C)O)c(F)cn2)cc2ccn(CC(N)=O)c(=O)c12 [compound 877]	–	94
Cc1ccnc(Nc2cc3cc[nH]c(=O)c3c(NCC3CCNCC3)n2)c1 [compound 554]	86	–
O=c1[nH]ccc2cc(C3=CCSCC3)nc(Nc3ccc(N4CCOCC4)cc3)c12 [compound 14]	809	–
O=c1[nH]ccc2cc(Nc3cnccn3)nc(N[C@H]3CC[C@H](O)CC3)c12 [compound 976]	–	5

Structure (SMILES)	IC50 [nM]	IC50 (Caliper LabChip assay) [nM]
CC(O)c1ccnc(Nc2cc3ccn(CCO)c(=O)c3c(NC(C)(C)C)n2)c1 (centres unmarked) [compound 700]	–	12
Cn1ccc2cc(Nc3ccc(C#N)cn3)nc(N)c2c1=O [compound 573]	3870	–
Cn1ccc2cc(Nc3cnccn3)nc(NC3CCC3)c2c1=O [compound 460]	16	–
C[C@@H]1CN(c2ccc(Nc3nc(CCC(=O)O)cc4cc[nH]c(=O)c34)cn2)CCO1 [compound 243]	307	–
O=c1c2c(N[C@H]3CC[C@@H](O)CC3)nc(Nc3cnccn3)cc2ccn1CCCO [compound 948]	–	18
CC(C)(C)Nc1nc(Nc2cnccn2)cc2ccn(C[C@@H](O)c3ccccc3)c(=O)c12 [compound 676]	–	120
CCn1ccc2cc(Nc3cnccn3)nc(N[C@H]3CC[C@H](O)C3)c2c1=O [compound 946]	–	17
CCn1ccc2cc(Nc3cc(C)ccn3)nc(N[C@H]3CC[C@@H](O)C3)c2c1=O [compound 424]	47	–
Cc1ccnc(Nc2cc3cc[nH]c(=O)c3c(NCCN(C)C)n2)c1 [compound 588]	1960	–
CNC(=O)c1ccc(Nc2nc(Nc3cc(C)ccn3)cc3ccn(C)c(=O)c23)cc1 [compound 342]	222	–
CC(=O)c1cc2cc[nH]c(=O)c2c(Nc2ccc(C3CCN(C4CC4)CC3)c(C)c2)n1 [compound 221]	253	–
Cn1cc(-c2cc(Nc3cc4ccn(CCO)c(=O)c4c(NC(C)(C)C)n3)ncn2)cn1 [compound 636]	–	237
CCn1ccc2cc(Nc3cc(C)ccn3)nc(NC(C)(C)CO)c2c1=O [compound 492]	54	–
CCN1CCN(CCc2ccc(Nc3nc(-c4ccc(C)nc4)cc4c(F)c[nH]c(=O)c34)cc2)CC1 [compound 443]	419	–
Cc1cc(-c2cc3cc[nH]c(=O)c3c(Nc3ccc(C4CCN(CCC#N)CC4)c(C)c3)n2)nc(N)n1 [compound 70]	344	–
CCC(C)(C)Nc1nc(-c2cnc(N)nc2)cc2ccn(CCO)c(=O)c12 [compound 908]	–	21
CCNC(=O)C(C)N1CCC(c2ccc(Nc3nc(-c4cncc(OC)n4)cc4cc[nH]c(=O)c34)cc2C)CC1 (centres unmarked) [compound 120]	23	–
Cc1nc(-c2cc3cc[nH]c(=O)c3c(Nc3ccc([C@H]4CC[C@H](N5CCOCC5)CC4)cc3)n2)cnc1N [compound 102]	226	–
Cn1ccc2cc(Nc3cc(Cl)ccn3)nc(N[C@H]3CC[C@@H](O)CC3)c2c1=O [compound 379]	36	–
O=c1[nH]ccc2cc(Nc3ccccn3)nc(NC3CC3)c12 [compound 524]	199	–
CC(C)n1ccc2cc(Nc3c[n+]([O-])ccn3)nc(N[C@H]3CC[C@@H](O)C3)c2c1=O [compound 1017]	–	25
CCn1ccc2cc(Nc3cnccn3)nc(N[C@H](C)CO)c2c1=O [compound 963]	–	147
Cc1ccnc(Nc2cc3cc[nH]c(=O)c3c(NC[C@@H](C)O)n2)c1 [compound 513]	70	–
C[C@@H](CO)Nc1nc(Nc2cnccn2)cc2ccn(CCF)c(=O)c12 [compound 1000]	–	74
C[C@@H]1CN(c2ccc(Nc3nc(-c4cncnc4)cc4cc[nH]c(=O)c34)cn2)C[C@H](C)O1 [compound 18]	245	–
O=c1c2c(N[C@H]3CC[C@@H](O)CC3)nc(Nc3cnccn3)cc2ccn1CCN1CCOCC1 [compound 994]	–	108

Structure (SMILES)	IC50 [nM]	IC50 (Caliper LabChip assay) [nM]
Cc1ccnc(Nc2cc3cc[nH]c(=O)c3c(NC(C)(C)CO)n2)c1 [compound 488]	21	–
O=c1[nH]ccc2cc(Nc3ccccn3)nc(NC3CCCC3)c12 [compound 296]	153	–
Cc1ccnc(Nc2cc3cc[nH]c(=O)c3c(NC3CC3)n2)c1 [compound 535]	206	–
CCn1ccc2cc(Nc3cc(C)ccn3)nc(N[C@H]3CC[C@@H](O)CC3)c2c1=O [compound 362]	18	–
Cc1ccc(-c2cc3cc[nH]c(=O)c3c(Nc3ccc(CCN4CCCN(C)CC4)cc3)n2)cn1 [compound 437]	102	–
Cc1ccnc(Nc2cc3ccn(C(C)C)c(=O)c3c(NC(C)(C)CO)n2)c1 [compound 819]	–	62
C[C@@H](CO)Nc1nc(Nc2cnccn2)cc2ccn(CCO)c(=O)c12 [compound 373]	27	–
NC(=O)Cn1ccc2cc(Nc3cnccn3)nc(NC3CCC3)c2c1=O [compound 754]	–	12
O=c1[nH]ccc2cc(Nc3cc(CO)ccn3)nc(NC3CC3)c12 [compound 518]	59	–
COCC(O)Cn1ccc2cc(Nc3cnccn3)nc(NC(C)(C)C)c2c1=O (centres unmarked) [compound 677]	–	12
COCC(C)Nc1nc(Nc2ccccn2)cc2cc[nH]c(=O)c12 (centres unmarked) [compound 276]	167	–
O=c1[nH]ccc2cc(Nc3cnccn3)nc(N[C@H]3CC[C@@H](O)CC3)c12 [compound 981]	–	15
C=C(C)c1cc2cc[nH]c(=O)c2c(Nc2ccc(C3CCN(C4CC4)CC3)c(C)c2)n1 [compound 229]	743	–
Cc1ncc(-c2cc3cc[nH]c(=O)c3c(Nc3ccc(C4CCN(CCCF)CC4)c(C)c3)n2)cn1 [compound 72]	12	–
COCCCc1cc(Nc2cc3ccn(CCO)c(=O)c3c(NC(C)(C)C)n2)ncn1 [compound 622]	–	85
CCn1ccc2cc(Nc3nccc(O)n3)nc(N[C@H]3CC[C@@H](O)C3)c2c1=O [compound 961]	–	23
CC(C)(C)Nc1nc(-c2cnc(N)nc2)cc2ccn(CC(=O)N3CCOCC3)c(=O)c12 [compound 678]	–	78
CCn1ccc2cc(Nc3cnccn3)nc(N[C@H]3CC[C@H](CO)C3)c2c1=O [compound 827]	–	12
Cc1ccnc(Nc2cc3ccn(CCO)c(=O)c3c(NC3CC3)n2)c1 [compound 817]	–	108
Cc1ccnc(Nc2cc3cc[nH]c(=O)c3c(NC[C@@H](O)c3cccc(Cl)c3)n2)c1 [compound 539]	915	–
N#CCn1ccc2cc(-c3cnc(N)nc3)nc(NC3CCOCC3)c2c1=O [compound 751]	–	70
CC(C)N1CCC(c2cc3cc[nH]c(=O)c3c(Nc3ccc(N4CCOCC4)cc3)n2)CC1 [compound 3]	202	–
Cc1cc(Nc2nc(-c3cncc(C(=O)N4CCOCC4)c3)cc3cc[nH]c(=O)c23)ccc1C1CCN(C2CC2)CC1 [compound 208]	112	–
CCN(CC)CCNC(=O)c1ccc(Nc2nc(Nc3cnccn3)cc3ccn(C)c(=O)c23)cc1 [compound 338]	1620	–
Cc1ccnc(Nc2cc3ccn(CCN4CCOCC4)c(=O)c3c(N[C@H]3CC[C@@H](O)CC3)n2)c1 [compound 993]	–	67
